# According to patent US20230172984A1, “CLEARANCE OF SENESCENT CELLS BY ACTIVATION OF iNKT CELLS” (THE REGENTS OF THE UNIVERSITY OF CALIFORNIA, priority 2020, published 2023):
# Tested on: senescent preadipocytes (C12FDG^Hi) in eWAT of HFD mice
# Experiment: C12FDG flow cytometry assay (SA-βgal activity) on eWAT SVF of HFD mice
# Assay type: in vivo, mouse
# Conditions: HFD-fed mice treated with ABT-737 vs vehicle-treated controls
# Experimental: MATERIALS AND METHODS. Mouse husbandry. All procedures involving mice were performed according to the IACUC standards following ethics approval by the animal committee at the University of California, San Francisco. Male C57BL6/J on chow or HFD fed mice. HFD mice were fed a high-fat diet (60% kcal from fat) from 6 weeks until 22 weeks of age. All experiments on HFD mice were performed at 22-24 weeks total age (16-18 weeks on HFD). Age-matched male C57BL6/J mice on standard rodent chow diet were used as controls. For the lung injury model, 10-week-old male C57BL/6J mice were used. The animals were divided into three groups: the control group, the injured group, and the α-GalCer treated group. The animals in the control group received vehicle only (i.p.) on day 10. The injured group animals received bleomycin (3 U/kg) via the intratracheal route at the start of the experiment (day 0). The animals in the α-GalCer treated groups received bleomycin (3 U/kg) on day 0, and i.p. injection of α-GalCer (2 μg/mouse) on day 10. The animals in all the groups were sacrificed on day 14, and lungs were harvested for isolation of primary pulmonary Alveolar Type II cells (ATII) on the same day. For the hydroxyproline assay, mice were euthanized 21 days after injury.
# Epidydmal white adipose tissue stromal vascular fraction (eWAT SVF) isolation. eWAT SVF was isolated using standard protocols. Briefly, mice were euthanized, and epididymal fat pads were harvested, washed twice in D-PBS and minced. eWAT pads were digested with 1 U/ml Collagenase-D (Roche) in 1×HBSS containing 1% BSA (Sigma-Aldrich) for 1 hr at 37° C. Digested fat tissue was then strained twice through 100 μm strainers and neutralized with 30 ml of complete culture media (DMEM-F12 1:1, 10% FBS, 1×Penicillin-streptomycin). Samples were spun at 500 g for 5 minutes, shaken to resuspend the SVF pellet and then spun again. The resulting SVF pellet containing blood cells was lysed with ACKS buffer, washed in D-PBS and spun down. Total live SVF cells were counted using trypan blue and then used for various assays.
# C12FDG flow cytometry assay. eWAT SVF cells isolated and counted as described above were adjusted to 3×10^6 cells/ml in complete culture media and incubated with 33 μM C12FDG for 1 hr in a 37° C. water bath. Cells were then spun down at 500 g for 5 minutes, washed with Cell Staining buffer, and stained with anti-CD45-APC (clone 30F-11) and anti-CD31-PE-Cy7 (clone 390) each at a 1:200 dilution on ice for 30 minutes. Cells were then washed in Cell Staining buffer and resuspended in Cell Staining buffer containing 1×7-AAD. Samples were analyzed on an Attune acoustic focusing cytometer. Gates were set as follows: cells (FSC-A/SSC-A), forward scatter singlets (FSC-H/FSC-A), side-scatter singlets (SSC-H/SSC-A), live cells (7-AAD^−), non-immune cells (CD45^−), non-endothelial cells (CD31^−) and analyzed for C12FDG fluorescence. […] Data were analyzed with FlowJo (v. 10). For Lung, 1×10^6 cells from each sample were used to perform the assay. The cells were incubated with 66 μm of C12FDG in sterile DMEM containing DNase for 1 hour at 37° C. Following the incubation, the cells were washed with cell staining buffer, blocked with anti CD16/32 mouse monoclonal antibody (1:1000, prepared by the UCSF monoclonal antibody core), and stained with APC anti-mouse CD45 (1:400), and 7-AAD (1:1000). The gating strategy followed selected 7-AAD^−, CD45^−, and C12FDG^+ cells. […]
smiles,measurement,setting,value
CN(C)CC[C@H](CSc1ccccc1)Nc1ccc(S(=O)(=O)NC(=O)c2ccc(N3CCN(Cc4ccccc4-c4ccc(Cl)cc4)CC3)cc2)cc1[N+](=O)[O-] [ABT-737],number of C12FDG^Hi cells in preadipocyte-enriched SVF population,FIG. 2C,reduced the number of C12FDG^Hi cells
same,relative number of C12FDG^Lo cells in preadipocyte-enriched SVF population,FIG. 2D,increased the relative number of C12FDG^Lo cells
